≈ marks a conversion by molar mass, not a printed value.
Experiments:
[1] = system: wild-type B. fungorum LB400; test: Natural chloramphenicol resistance seen during selection of transconjugants; format: cell-based, Burkholderia fungorum; settings: citrate medium
Method: A ΔflhA::kan mutant of B. fungorum LB400 was generated by introducing pCM363 by conjugation. […] One tetracycline-sensitive strain representing a ΔfIhA::kan mutant, CM363K.1, was chosen for further study. The plasmid pCM157 was used as described above to produce the ΔflhA strain CM363.1. Analytical PCR was performed with wild-type B. fungorum LB400, CM363K.1, and CM363.1 for confirmation (data not shown).

Row | SMILES | naturally resistant below [1] | MIC (ΔflhA strain CM363.1)
1 | O=C(N[C@H](CO)[C@H](O)c1ccc([N+](=O)[O-])cc1)C(Cl)Cl [chloramphenicol] | 10 to 20 µg/mL | –
2 | C=O [formaldehyde] | – | 100 µM (≈ 3 µg/mL)

Source: patent US10920230B2, “Methylotrophs for aquaculture and animal feed” (KnipBio, Inc., priority 2013, dated 2021)
